In patent publication US20130023681A1, “STABILIZED DOXERCALCIFEROL AND PROCESS FOR MANUFACTURING THE SAME” (ALPHORA RESEARCH INC., priority 2010, published 2013):
Entries after “also recorded” stand apart in the source; their conditions may differ.

Legend:
[1] = Accelerated storage study (HPLC analysis of stored samples); format: physicochemical
Experimental: (§1) Samples of material generated by the aforementioned procedure were quarantined, stored and subjected to 2 stability studies:
(§2) Both studies employed ICH-compliant stability chambers for controlled storage, and the following HPLC method for analysis of samples:
(§3) HPLC Detector/wavelength: Photo Diode Array Detector/190-400 nm
(§4) Column: Waters SUNFIRE C18, 4.6 by 150 mm, 3.5 μm
(§5) Column/sample Temperature: 25° C./5° C.
(§6) Flow Rate/injection volume: 1.2 mL per min/10.00 μL
(§7) Sample concentration: 1 mg/mL
(§8) Diluent: Water: DCM: MeOH: ACN (10: 5: 10: 75)
(§9) Eluent: A (H2O); B (ACN); C (MeOH)
Samples were subjected to the following conditions: 25±2° C./60±2% R.H., Argon headspace. Samples were stored in ICH-compliant stability chambers, sampled at 1, 3 and 6 months, and analyzed using the described HPLC method.

[2] = Long term stability study (HPLC analysis of stored samples); format: physicochemical
Experimental: as §1, §2, §3, §4, §5, §6, §7, §8, §9
Samples were subjected to the following conditions: 5±3° C. Argon headspace, −20±5° C., Argon headspace. Samples were stored in ICH-compliant stability chambers, sampled at 1, 3, 6 and 9 months, and analyzed using the described HPLC method.

- HPLC purity after accelerated storage ([1]; 25±2° C./60±2% R.H., Argon headspace, time-points 1, 3 and 6 months, initial (t=0) HPLC a/a purity >99.0% a/a): ≥ 99.0%
- HPLC assay after accelerated storage ([1]; 25±2° C./60±2% R.H., Argon headspace, time-points 1, 3 and 6 months, initial (t=0) HPLC w/w assay >99.0% w/w): ≥ 99.0 % w/w
- Change in purity on accelerated storage (in words) ([1]; samples of purity 99% and above, 1, 3 and 6 months at 25±2° C., relative humidity 60±2%, argon headspace): no reduction in purity
- HPLC purity after long term storage ([2]; 5±3° C. Argon headspace, −20±5° C. Argon headspace, time-points 1, 3, 6 and 9 months, initial (t=0) HPLC a/a purity >99.0% a/a): ≥ 99.0%
- HPLC assay after long term storage ([2]; 5±3° C. Argon headspace, −20±5° C. Argon headspace, time-points 1, 3, 6 and 9 months, initial (t=0) HPLC w/w assay >99.0% w/w): ≥ 99.0 % w/w
Structure (SMILES): C=C1/C(=C\C=C2/CCC[C@]3(C)[C@@H]([C@H](C)/C=C/[C@H](C)C(C)C)CC[C@@H]23)C[C@@H](O)C[C@@H]1O [1α-hydroxyvitamin D2]
- Change in purity / stability in ICH stability studies (in words) ([2]; samples of purity 99% and above, six months under argon headspace at either −20±5° C. or 5±3° C.): unexpectedly high stability; also recorded: no reduction in purity
